# Test system: A549
# Assay: Cytostatic cell culture assay (GI50), SRB
# Format: cell-based
# Settings: 5 days incubation
# Text: (§1) The assay is based on quantification of cell counts by a colorimetric detection of the cell associated proteins. The assay relies on the ability of sulforhodamine B (SRB) to bind to protein components of cells that have been fixed to tissue-culture plates by trichloroacetic acid (TCA). SRB is a bright-pink aminoxanthene dye with two sulfonic groups that bind to basic amino-acid residues under mild acidic conditions, and dissociate under basic conditions. As the binding of SRB is stoichiometric, the amount of dye extracted from stained cells is directly proportional to the cell mass.
# (§2) Cell lines: All cell lines were obtained from ATCC (Manassas, Va.). Cultivation media containing Glutamax, and trypsin were purchased from Invitrogen (Carlsbad, Calif.). Doxorubicin, Clofarabine, TCA and SRB were from Sigma-Aldrich (St. Louis, Mo.). Gemcitabine was obtained from Moravek Biochemicals (Brea, Calif.)
# (§3) • 1. Trypsinize the sub-confluent cells, count them, and adjust the cell concentrations according to the cell counts listed in Table 1. • 2. Distribute the cells into the 96-well plates in 150 μL of media. Incubate the plates overnight in humidified CO2 incubator at 37° C. • 3. Fix one plate of each cell line with TCA. Discard the cultivation media from the plates by flicking them gently and add 100 ul cold 10% (vol/vol) TCA to each well. Incubate the plates at 4 degree refrigerator for 1 hour. Discard TCA from the plates by flicking them gently. Rinse plates four times in a washing basin containing tap water. Store the plates at room temperature. These plates represent cell counts on day zero. • 4. Prepare a set of medium solutions containing various concentrations of tested compounds by making 5-fold serial dilutions in 96-well plate. Add 50 μL of the diluted compounds per well. Include controls with untreated cells and cells treated with doxorubicin, clofarabine and gemcitabine. • 5. Incubate the plates for 5 days at 37° C. • 6. Fix the plates with TCA. Discard the cultivation media from the plates by flicking them gently and add 100 ul cold 10% (vol/vol) TCA to each well. Incubate the plates at 4 degree refrigerator for 1 hour. Discard TCA from the plates by flicking them gently. Rinse plates four times in a washing basin containing tap water. • 7. Remove excess water by tapping the plates face down, gently on a paper towel. Allow the plates to air-dry at room temperature. • 8. Add 100 ul of 0.057% SRB solution in 1% (vol/vol) acetic acid to each well of the plates fixed with TCA on day zero and five. Leave at room temperature for 30 minutes. • 9. Flick the plates gently to discard SRB. Rinse the plates four times with 1% (vol/vol) Acetic Acid. • 10. Store the plates at 37 degree incubator to facilitate faster drying. • 11. Once the plates are completely dry, add 200 ul of 10 mM Tris base solution (pH 10.5) to each well. Leave at room temperature for 30 minutes for SRB to solubilize. • 12. Measure the OD at 500 nm in a microplate reader • 13. Calculate the percentage of cell-growth inhibition using the next formula: % of control cell growth=100×(ODsample−mean ODday0)/(ODneg control−mean ODday0)
# (§4) For GI50 determination, plot a dose-response curve between the compound concentration and percent of growth inhibition. GI50 values can be derived by fitting dose-response curves using sigmoidal dose response equation.
row,SMILES,GI50 [nM]
1,"CCCCOC(=O)[C@H](C)NP(=O)(COCCn1cnc2c(OCCC)nc(N)nc21)Oc1ccccc1 (single isomer, unassigned) [Example 52b]",15

# Same assay, conditions: Homo sapiens, A549, 120 h; 5 days incubation
row,GI50 [nM],SMILES
1,1050,CCCCCCOC(=O)[C@@H]1CCCN1P(=O)(COCCn1cnc2c(OCCC)nc(N)nc21)N1CCC[C@H]1C(=O)OCCCCCC [Example 26]
2,168,CCCOc1nc(N)nc2c1ncn2CCOCP(=O)(OCOC(=O)OC(C)C)OCOC(=O)OC(C)C [Example 59]
3,81,CCCOc1nc(N)nc2c1ncn2CCOCP(=O)(N[C@@H](Cc1ccccc1)C(=O)OCC)N[C@@H](Cc1ccccc1)C(=O)OCC [Example 15]
4,41,CCCCOC(=O)[C@H](C)NP(=O)(COCCn1cnc2c(OC(C)C)nc(N)nc21)N[C@@H](C)C(=O)OCCCC [Example 34]

# Test system: BT-549
# Assay: Cytostatic cell culture assay (GI50), SRB
# Format: cell-based
# Settings: 5 days incubation
# Text: as §1, §2, §3, §4
row,SMILES,GI50 [nM]
1,"CCCCOC(=O)[C@H](C)NP(=O)(COCCn1cnc2c(OCCC)nc(N)nc21)Oc1ccccc1 (single isomer, unassigned) [Example 52b]",100

# Same assay, conditions: Homo sapiens, BT-549, 120 h; 5 days incubation
row,GI50 [nM],SMILES
1,67,CCCCCCOC(=O)[C@@H]1CCCN1P(=O)(COCCn1cnc2c(OCCC)nc(N)nc21)N1CCC[C@H]1C(=O)OCCCCCC [Example 26]
2,45,CCCOc1nc(N)nc2c1ncn2CCOCP(=O)(OCOC(=O)OC(C)C)OCOC(=O)OC(C)C [Example 59]
3,102,CCCOc1nc(N)nc2c1ncn2CCOCP(=O)(N[C@@H](Cc1ccccc1)C(=O)OCC)N[C@@H](Cc1ccccc1)C(=O)OCC [Example 15]
4,195,CCCCOC(=O)[C@H](C)NP(=O)(COCCn1cnc2c(OC(C)C)nc(N)nc21)N[C@@H](C)C(=O)OCCCC [Example 34]

# Test system: Du-145
# Assay: Cytostatic cell culture assay (GI50), SRB
# Format: cell-based
# Settings: 5 days incubation
# Text: as §1, §2, §3, §4
row,SMILES,GI50 [nM]
1,"CCCCOC(=O)[C@H](C)NP(=O)(COCCn1cnc2c(OCCC)nc(N)nc21)Oc1ccccc1 (single isomer, unassigned) [Example 52b]",0.3

# Same assay, conditions: Homo sapiens, DU-145, 120 h; 5 days incubation
row,GI50 [nM],SMILES
1,2,CCCCCCOC(=O)[C@@H]1CCCN1P(=O)(COCCn1cnc2c(OCCC)nc(N)nc21)N1CCC[C@H]1C(=O)OCCCCCC [Example 26]
2,2,CCCOc1nc(N)nc2c1ncn2CCOCP(=O)(OCOC(=O)OC(C)C)OCOC(=O)OC(C)C [Example 59]
3,3,CCCOc1nc(N)nc2c1ncn2CCOCP(=O)(N[C@@H](Cc1ccccc1)C(=O)OCC)N[C@@H](Cc1ccccc1)C(=O)OCC [Example 15]
4,4,CCCCOC(=O)[C@H](C)NP(=O)(COCCn1cnc2c(OC(C)C)nc(N)nc21)N[C@@H](C)C(=O)OCCCC [Example 34]

# Test system: HCT-116
# Assay: Cytostatic cell culture assay (GI50), SRB
# Format: cell-based
# Settings: 5 days incubation
# Text: as §1, §2, §3, §4
row,SMILES,GI50 [nM]
1,"CCCCOC(=O)[C@H](C)NP(=O)(COCCn1cnc2c(OCCC)nc(N)nc21)Oc1ccccc1 (single isomer, unassigned) [Example 52b]",11

# Same assay, conditions: Homo sapiens, HCT-116, 120 h; 5 days incubation
row,GI50 [nM],SMILES
1,119,CCCCCCOC(=O)[C@@H]1CCCN1P(=O)(COCCn1cnc2c(OCCC)nc(N)nc21)N1CCC[C@H]1C(=O)OCCCCCC [Example 26]
2,118,CCCOc1nc(N)nc2c1ncn2CCOCP(=O)(OCOC(=O)OC(C)C)OCOC(=O)OC(C)C [Example 59]
3,18,CCCOc1nc(N)nc2c1ncn2CCOCP(=O)(N[C@@H](Cc1ccccc1)C(=O)OCC)N[C@@H](Cc1ccccc1)C(=O)OCC [Example 15]
4,55,CCCCOC(=O)[C@H](C)NP(=O)(COCCn1cnc2c(OC(C)C)nc(N)nc21)N[C@@H](C)C(=O)OCCCC [Example 34]

# Test system: HCT-15
# Assay: Cytostatic cell culture assay (GI50), SRB
# Format: cell-based
# Settings: 5 days incubation
# Text: as §1, §2, §3, §4
row,SMILES,GI50 [nM]
1,"CCCCOC(=O)[C@H](C)NP(=O)(COCCn1cnc2c(OCCC)nc(N)nc21)Oc1ccccc1 (single isomer, unassigned) [Example 52b]",517

# Same assay, conditions: Homo sapiens, HCT-15, 120 h; 5 days incubation
row,GI50 [nM],SMILES
1,1950,CCCCCCOC(=O)[C@@H]1CCCN1P(=O)(COCCn1cnc2c(OCCC)nc(N)nc21)N1CCC[C@H]1C(=O)OCCCCCC [Example 26]
2,534,CCCOc1nc(N)nc2c1ncn2CCOCP(=O)(OCOC(=O)OC(C)C)OCOC(=O)OC(C)C [Example 59]
3,1280,CCCOc1nc(N)nc2c1ncn2CCOCP(=O)(N[C@@H](Cc1ccccc1)C(=O)OCC)N[C@@H](Cc1ccccc1)C(=O)OCC [Example 15]
4,2650,CCCCOC(=O)[C@H](C)NP(=O)(COCCn1cnc2c(OC(C)C)nc(N)nc21)N[C@@H](C)C(=O)OCCCC [Example 34]

# Test system: Hs-578
# Assay: Cytostatic cell culture assay (GI50), SRB
# Format: cell-based
# Settings: 5 days incubation
# Text: as §1, §2, §3, §4
row,SMILES,GI50 [nM]
1,"CCCCOC(=O)[C@H](C)NP(=O)(COCCn1cnc2c(OCCC)nc(N)nc21)Oc1ccccc1 (single isomer, unassigned) [Example 52b]",2

# Same assay, conditions: Hs578, 120 h; 5 days incubation
row,SMILES,GI50 [nM]
1,CCCCCCOC(=O)[C@@H]1CCCN1P(=O)(COCCn1cnc2c(OCCC)nc(N)nc21)N1CCC[C@H]1C(=O)OCCCCCC [Example 26],97
2,CCCOc1nc(N)nc2c1ncn2CCOCP(=O)(OCOC(=O)OC(C)C)OCOC(=O)OC(C)C [Example 59],61
3,CCCOc1nc(N)nc2c1ncn2CCOCP(=O)(N[C@@H](Cc1ccccc1)C(=O)OCC)N[C@@H](Cc1ccccc1)C(=O)OCC [Example 15],112
4,CCCCOC(=O)[C@H](C)NP(=O)(COCCn1cnc2c(OC(C)C)nc(N)nc21)N[C@@H](C)C(=O)OCCCC [Example 34],31

# Test system: NCI-H23
# Assay: Cytostatic cell culture assay (GI50), SRB
# Format: cell-based
# Settings: 5 days incubation
# Text: as §1, §2, §3, §4
row,SMILES,GI50 [nM]
1,"CCCCOC(=O)[C@H](C)NP(=O)(COCCn1cnc2c(OCCC)nc(N)nc21)Oc1ccccc1 (single isomer, unassigned) [Example 52b]",1

# Same assay, conditions: Homo sapiens, NCI-H23, 120 h; 5 days incubation
row,GI50 [nM],SMILES
1,9,CCCCCCOC(=O)[C@@H]1CCCN1P(=O)(COCCn1cnc2c(OCCC)nc(N)nc21)N1CCC[C@H]1C(=O)OCCCCCC [Example 26]
2,10,CCCOc1nc(N)nc2c1ncn2CCOCP(=O)(OCOC(=O)OC(C)C)OCOC(=O)OC(C)C [Example 59]
3,7,CCCOc1nc(N)nc2c1ncn2CCOCP(=O)(N[C@@H](Cc1ccccc1)C(=O)OCC)N[C@@H](Cc1ccccc1)C(=O)OCC [Example 15]
4,5,CCCCOC(=O)[C@H](C)NP(=O)(COCCn1cnc2c(OC(C)C)nc(N)nc21)N[C@@H](C)C(=O)OCCCC [Example 34]

# Test system: PC3
# Assay: Cytostatic cell culture assay (GI50), SRB
# Format: cell-based
# Settings: 5 days incubation
# Text: as §1, §2, §3, §4
row,SMILES,GI50 [nM]
1,"CCCCOC(=O)[C@H](C)NP(=O)(COCCn1cnc2c(OCCC)nc(N)nc21)Oc1ccccc1 (single isomer, unassigned) [Example 52b]",3

# Same assay, conditions: Homo sapiens, PC-3, 120 h; 5 days incubation
row,GI50 [nM],SMILES
1,81,CCCCCCOC(=O)[C@@H]1CCCN1P(=O)(COCCn1cnc2c(OCCC)nc(N)nc21)N1CCC[C@H]1C(=O)OCCCCCC [Example 26]
2,40,CCCOc1nc(N)nc2c1ncn2CCOCP(=O)(OCOC(=O)OC(C)C)OCOC(=O)OC(C)C [Example 59]
3,26,CCCOc1nc(N)nc2c1ncn2CCOCP(=O)(N[C@@H](Cc1ccccc1)C(=O)OCC)N[C@@H](Cc1ccccc1)C(=O)OCC [Example 15]
4,21,CCCCOC(=O)[C@H](C)NP(=O)(COCCn1cnc2c(OC(C)C)nc(N)nc21)N[C@@H](C)C(=O)OCCCC [Example 34]
